The values below come from patent publication US20140323418A1, “SELECTIVE KINASE INHIBITORS” (PORTOLA PHARMACEUTICALS, INC., priority 2011, published 2014).

For orientation: IC50 means the concentration that gives 50% inhibition.

The assay has as its target T1, full length active recombinant SYK enzyme (Homo sapiens, UniProt P43405).
T1 construct: full length active recombinant SYK enzyme (Millipore, Calif.); purchased Millipore
Nature of the assay: Inhibition of Syk tyrosine phosphorylation activity (LANCE TR-FRET kinase assay). It is filed as biochemical. The conditions noted are these: 1 nM SYK, 550 nM substrate, 100 μM ATP, 1 hour room temperature.
Take `C[C@@H](Nc1ncc(C(N)=O)c(Nc2cccc(-c3ncccn3)c2)n1)C1(N)CC1` [Example 141, (R)-2-(1-(1-aminocyclopropyl)ethylamino)-4-(3-(pyrimidin-2-yl)phenylamino)pyrimidine-5-carboxamide]: the IC50 was in the range of 0.001 to 0.01 µM.
Turning to `NC(=O)c1cnc(N[C@H]2CN[C@@H](CF)C2)nc1Nc1cccc(-n2nccn2)c1` [Example 229, 4-((3-(2H-1,2,3-triazol-2-yl)phenyl)amino)-2-(((3R,5R)-5-(fluoromethyl)pyrrolidin-3-yl)amino)pyrimidine-5-carboxamide], the half-maximal inhibitory concentration (IC50) fell in the range of 0.1 to 1 µM.
For the compound `CN1CCCc2cc(Nc3nc(N[C@H]4CN[C@@H](CO)C4)ncc3C(N)=O)ccc21` [Example 220, 2-(((3R,5R)-5-(hydroxymethyl)pyrrolidin-3-yl)amino)-4-((1-methyl-1,2,3,4-tetrahydroquinolin-6-yl)amino)pyrimidine-5-carboxamide], the IC50 was 0.01 to 0.1 µM.
The value for `CCC(Nc1ncc(C(N)=O)c(Nc2cccc(C)c2)n1)C1(N)CC1` (racemic) [Example 125, (±)-2-(1-(1-aminocyclopropyl)propylamino)-4-(m-tolylamino)pyrimidine-5-carboxamide] was 0.001 to 0.01 µM; that for `NC(=O)c1cnc(N[C@H](c2ccccc2)C2(N)CC2)nc1Nc1cccc(-c2ncccn2)c1` [Example 150, (R)-2-(1-(1-aminocyclopropyl)(phenyl)methylamino)-4-(3-(pyrimidin-2-yl)phenylamino)pyrimidine-5-carboxamide] was 0.01 to 0.1 µM.
The value for `NC(=O)c1cnc(NC2CCNC2=O)nc1Nc1cnc2ccccc2c1` (stereo not shown) [Example 216, 2-((2-oxopyrrolidin-3-yl)amino)-4-(quinolin-3-ylamino)pyrimidine-5-carboxamide] was > 1 µM; that for `NC(=O)c1cnc(NC[C@@H](N)CC(F)F)nc1Nc1cccc(-c2ncccn2)c1` [Example 95, (S)-2-(2-amino-4,4-difluorobutylamino)-4-(3-(pyrimidin-2-yl)phenylamino)pyrimidine-5-carboxamide] was 0.1 to 1 µM.
The value for `Cn1ncc2c(Nc3nc(N[C@@H]4CCC[C@H](F)[C@@H]4N)ncc3C(N)=O)cccc21` [Example 240, 2-((1R,2R,3S)-2-amino-3-fluorocyclohexylamino)-4-(1-methyl-1H-indazol-4-ylamino)pyrimidine-5-carboxamide] was 0.01 to 0.1 µM.
As for `CC[C@@H](Nc1ncc(C(N)=O)c(Nc2cccc(C)c2)n1)C1(N)CC1` [Example 126, (R)-2-(1-(1-aminocyclopropyl)propylamino)-4-(m-tolylamino)pyrimidine-5-carboxamide], the 50% inhibitory concentration (IC50) was < 0.001 µM.
The value for `CCO[C@H]1CCCC[C@H]1Nc1ncc(C(N)=O)c(Nc2cccc(-n3nccn3)c2)n1` [Example 7, 4-(3-(2H-1,2,3-triazol-2-yl)phenylamino)-2-((1R,2S)-2-ethoxycyclohexylamino)pyrimidine-5-carboxamide] was 0.1 to 1 µM; that for `COc1cccc(Nc2nc(N[C@@H](C(N)=O)C3CC3)ncc2C(N)=O)c1` [Example 64, (R)-2-((2-amino-1-cyclopropyl-2-oxoethyl)amino)-4-((3-methoxyphenyl)amino)pyrimidine-5-carboxamide] was 0.1 to 1 µM; that for `NC(=O)c1cnc(N[C@H]2CN[C@H](C(=O)O)C2)nc1Nc1cnc2ccccc2c1` [Example 217, (2S,4R)-4-((5-carbamoyl-4-(quinolin-3-ylamino)pyrimidin-2-yl)amino)pyrrolidine-2-carboxylic acid] was > 1 µM.
The value for `NC(=O)c1cnc(N[C@@H]2CCCC[C@@H]2N)nc1Nc1cc(-n2cccn2)cc(-n2cccn2)c1` [Example 249, 2-(((1R,2S)-2-aminocyclohexyl)amino)-4-((3,5-di(1H-pyrazol-1-yl)phenyl)amino)pyrimidine-5-carboxamide] was 0.001 to 0.01 µM; that for `NC(=O)c1cnc(N[C@@H]2CCC[C@H](F)[C@@H]2N)nc1Nc1ccc2ncccc2c1` [Example 237, 2-((1R,2R,3S)-2-amino-3-fluorocyclohexylamino)-4-(quinolin-6-ylamino)pyrimidine-5-carboxamide] was 0.01 to 0.1 µM.
The result for `Cc1cccc(Nc2nc(N[C@@H]3CC[C@H](N)C3)ncc2C(N)=O)c1` [Example 119, 4-(m-toluidino)-2-((1R,3S)-3-aminocyclopentylamino)pyrimidine-5-carboxamide] reads 0.1 to 1 µM; that for `CC[C@@H](Nc1ncc(C(N)=O)c(Nc2cccc(OC)c2)n1)C(N)=O` [Example 60, (R)-2-((1-amino-1-oxobutan-2-yl)amino)-4-((3-methoxyphenyl)amino)pyrimidine-5-carboxamide], 0.1 to 1 µM; that for `NC(=O)c1cnc(N[C@H]2[C@@H](N)CCCC2(F)F)nc1Nc1cccc(-c2ncccn2)c1` [Example 35, 2-(((1S,6S)-6-amino-2,2-difluorocyclohexyl)amino)-4-((3-(pyrimidin-2-yl)phenyl)amino)pyrimidine-5-carboxamide], 0.01 to 0.1 µM.
Regarding `Cn1ccc2c(Nc3nc(NC4(C#N)CC4)ncc3C(N)=O)cccc21` [Example 109, 2-(1-cyanocyclopropylamino)-4-(1-methyl-1H-indol-4-ylamino)pyrimidine-5-carboxamide], the IC50 fell in the range of 0.1 to 1 µM.
Regarding `NC(=O)c1cnc(N[C@@H]2CCC[C@@H](F)[C@@H]2N)nc1Nc1cccc(-n2nccn2)c1` (racemic) [Example 242, (±)-4-(3-(2H-1,2,3-triazol-2-yl)phenylamino)-2-((1R,2R,3R)-2-amino-3-fluorocyclohexylamino)pyrimidine-5-carboxamide], the IC50 fell in the range of 0.01 to 0.1 µM.
As for `CCO[C@@H]1CCCC[C@H]1Nc1ncc(C(N)=O)c(Nc2cccc(-n3nccn3)c2)n1` [Example 6], the IC50 was in the range of 0.1 to 1 µM.
The value for `NC(=O)c1cnc(N[C@H]2CN[C@H](CO)C2)nc1Nc1cccc(-n2nccn2)c1` [Example 225] was 0.1 to 1 µM; that for `Cc1cccc(Nc2nc(NCC(N)C(C)(F)F)ncc2C(N)=O)c1` (stereo not shown) [Example 105, 4-(m-toluidino)-2-(2-amino-3,3-difluorobutylamino)pyrimidine-5-carboxamide] was 0.1 to 1 µM; that for `NC(=O)c1cnc(N[C@@H]2CCCC(F)(F)[C@@H]2N)nc1Nc1ccccc1` [Example 27, 2-(((1R,2R)-2-amino-3,3-difluorocyclohexyl)amino)-4-(phenylamino)pyrimidine-5-carboxamide] was 0.1 to 1 µM.
The result for `NC(=O)c1cnc(N[C@@H]2CCC[C@H](F)[C@@H]2N)nc1Nc1cccc(-n2nccn2)c1` (racemic) [Example 174] reads 0.01 to 0.1 µM; that for `N#CCN[C@H]1CCCC[C@H]1Nc1ncc(C(N)=O)c(Nc2cccc(-n3nccn3)c2)n1` [Example 11, 4-(3-(2H-1,2,3-triazol-2-yl)phenylamino)-2-((1R,2S)-2-(cyanomethylamino)cyclohexylamino)pyrimidine-5-carboxamide], 0.1 to 1 µM.
The result for `NC(=O)c1cnc(N[C@@H]2CCOC[C@@H]2N)nc1Nc1cccc(Cl)c1` [Example 50, 2-(((3R,4R)-3-aminotetrahydro-2H-pyran-4-yl)amino)-4-((3-chlorophenyl)amino)pyrimidine-5-carboxamide] reads 0.01 to 0.1 µM; that for `NC(=O)c1cnc(Nc2ccccc2)nc1NC1CCC(N)CC1` (stereo not shown) [Example 183, 4-(4-aminocyclohexylamino)-2-(phenylamino)pyrimidine-5-carboxamide], 0.01 to 0.1 µM; that for `Cn1cc(C#N)c2c(Nc3nc(N[C@@H]4CCCC[C@@H]4N)ncc3C(N)=O)cccc21` [Example 103, 2-((1R,2S)-2-aminocyclohexylamino)-4-(3-cyano-1-methyl-1H-indol-4-ylamino)pyrimidine-5-carboxamide], 0.1 to 1 µM.
Take `NC(=O)c1cnc(N[C@@H]2CCCC[C@@H]2NCCO)nc1Nc1cccc(-n2nccn2)c1` [Example 12, 4-(3-(2H-1,2,3-triazol-2-yl)phenylamino)-2-((1R,2S)-2-(2-hydroxyethylamino)cyclohexylamino)pyrimidine-5-carboxamide]: the 50% inhibitory concentration (IC50) is 0.1 to 1 µM.
Regarding `NC(=O)c1cnc(N[C@H](C2CC2)C2(N)CC2)nc1Nc1cnc2ccccc2c1` [Example 152, (R)-2-(1-(1-aminocyclopropyl)(cyclopropyl)methylamino)-4-(quinolin-3-ylamino)pyrimidine-5-carboxamide], the IC50 fell in the range of 0.001 to 0.01 µM.
The value for `NC(=O)c1cnc(N[C@@H]2CCCC(F)(F)[C@@H]2N)nc1Nc1cccc2c1ccn2CC(F)(F)F` [Example 93, 2-((1R,2R)-2-amino-3,3-difluorocyclohexylamino)-4-(1-(2,2,2-trifluoroethyl)-1H-indol-4-ylamino)pyrimidine-5-carboxamide] was 0.01 to 0.1 µM.
The value for `COc1ccc(Nc2ncc(C(N)=O)c(NC3CCC(N)CC3)n2)cn1` (stereo in doubt) [Example 248, 4-(trans-4-aminocyclohexylamino)-2-(6-methoxypyridin-3-ylamino)pyrimidine-5-carboxamide] was 0.1 to 1 µM; that for `NC(=O)c1cnc(N[C@@H]2CCOC[C@@H]2N)nc1Nc1ccc2scnc2c1` [Example 178, 2-((3R,4R)-3-aminotetrahydro-2H-pyran-4-ylamino)-4-(benzo[d]thiazol-5-ylamino)pyrimidine-5-carboxamide] was 0.01 to 0.1 µM; that for `NC(=O)c1cnc(N[C@H](C2CC2)C2(N)CC2)nc1Nc1cccc(-n2cncn2)c1` [Example 163, (R)-4-(3-(1H-1,2,4-triazol-1-yl)phenylamino)-2-(1-(1-aminocyclopropyl)(cyclopropyl)methylamino)pyrimidine-5-carboxamide] was 0.001 to 0.01 µM.
The value for `N#Cc1cccc(Nc2nc(NC[C@@H](N)CC(F)F)ncc2C(N)=O)c1` [Example 82, (S)-2-(2-amino-4,4-difluorobutylamino)-4-(3-cyanophenylamino)pyrimidine-5-carboxamide] was 0.1 to 1 µM; that for `NC(=O)c1cnc(N[C@@H]2CCNC2)nc1Nc1cccc(-c2ncccn2)c1` [Example 222] was 0.01 to 0.1 µM.
Turning to `CCN1CC[C@@H](Nc2ncc(C(N)=O)c(Nc3cccc(-n4nccn4)c3)n2)C1` [Example 223], the IC50 is > 1 µM.
